Data from patent US20250041429A1, “COMPOUND HAVING BTK PROTEIN DEGRADATION ACTIVITY, AND MEDICAL USES THEREOF” (UBIX THERAPEUTICS, INC., priority 2021, published 2025).

Target: T1, BTK protein (Homo sapiens, UniProt Q06187)
T1 construct: endogenous in cells; host or cells: TMD-8 cells
Experiment: Measurement of BTK protein degradation ability in TMD-8 cells (Western blotting)
Format: cell-based
Conditions: harvested after 24 hours; for BTK degradation (%) 1 nM: compound 1 nM; for BTK degradation (%) 10 nM: compound 10 nM; for BTK degradation (%) 100 nM: compound 100 nM
Method in brief: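 TMD-8 cells (1×10^6/mL) were treated for 24 h with compound at 0.1, 1, 10 μM or 0.0001–0.1 μM, with DMSO as vehicle control. RIPA lysates were normalized by BCA assay. BTK was detected by Western blot with anti-BTK, using GAPDH or β-actin as loading controls, and imaged on LI-COR Odyssey.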

T1 sequence (Q06187 whole entry): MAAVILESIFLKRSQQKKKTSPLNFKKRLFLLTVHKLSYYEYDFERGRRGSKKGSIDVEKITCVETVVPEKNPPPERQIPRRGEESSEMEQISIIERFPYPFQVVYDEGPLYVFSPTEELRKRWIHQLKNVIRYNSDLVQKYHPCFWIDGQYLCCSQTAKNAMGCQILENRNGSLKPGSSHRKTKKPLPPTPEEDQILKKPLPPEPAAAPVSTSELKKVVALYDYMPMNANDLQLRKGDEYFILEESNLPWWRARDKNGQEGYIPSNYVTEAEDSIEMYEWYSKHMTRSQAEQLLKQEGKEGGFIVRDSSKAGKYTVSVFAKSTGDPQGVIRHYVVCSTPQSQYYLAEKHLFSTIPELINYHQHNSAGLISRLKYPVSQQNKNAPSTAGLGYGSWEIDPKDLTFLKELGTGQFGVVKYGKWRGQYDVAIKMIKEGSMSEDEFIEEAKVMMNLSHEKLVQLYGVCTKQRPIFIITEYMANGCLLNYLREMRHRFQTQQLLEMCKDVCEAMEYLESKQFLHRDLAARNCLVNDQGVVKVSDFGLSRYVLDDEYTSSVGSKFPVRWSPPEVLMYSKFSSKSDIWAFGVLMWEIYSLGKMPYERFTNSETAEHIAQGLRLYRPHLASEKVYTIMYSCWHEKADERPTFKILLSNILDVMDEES

Structure (SMILES) | BTK degradation (%) 1 nM | BTK degradation (%) 10 nM | BTK degradation (%) 100 nM
Cc1cc(-c2ccnc(Nc3ccc(N4CCN(CC5CCN(Cc6cccc(NC7CCC(=O)NC7=O)c6)CC5)CC4)cc3)n2)ccc1CNC(=O)N1CC(OC(C)C)C1 (centres unmarked) [Example 115, N-(4-(2-((4-(4-((1-(3-((2,6-dioxopiperidin-3-yl)amino)benzyl)piperidin-4-yl)methyl)piperazin-1-yl)phenyl)amino)pyrimidin-4-yl)-2-methylbenzyl)-3-isopropoxyazetidine-1-carboxamide] | 48.0% | 97.0% | 100.0%
Cc1cc(-c2ccnc(Nc3ccc(N4CCN(CC5CCN(c6cccc(OC7CCC(=O)NC7=O)c6)CC5)CC4)cc3)n2)ccc1CNC(=O)N1CC(OC(C)C)C1 (centres unmarked) [Example 42, N-(4-(2-((4-(4-((1-(3-((2,6-dioxopiperidin-3-yl)oxy)phenyl)piperidin-4-yl)methyl)piperazin-1-yl)phenyl)amino)pyrimidin-4-yl)-2-methylbenzyl)-3-isopropoxyazetidine-1-carboxamide] | 60.5% | 97.5% | 100.0%
Cc1cc(-c2ccnc(Nc3ccc(N4CCC(CN5CCN(c6ccc(NC7CCC(=O)NC7=O)cn6)CC5)CC4)cc3)n2)ccc1CNC(=O)c1cnn(C(C)C)c1 (centres unmarked) [Example 129, N-(4-(2-((4-(4-((4-(5-((2,6-dioxopiperidin-3-yl)amino)pyridin-2-yl)piperazin-1-yl)methyl)piperidin-1-yl)phenyl)amino)pyrimidin-4-yl)-2-methylbenzyl)-1-isopropyl-1H-pyrazole-4-carboxamide] | 49.0% | 95.5% | 100.0%
Cc1cc(-c2ccnc(Nc3ccc(N4CCN(CC5CCN(c6cccc(N7CCC(=O)NC7=O)c6)CC5)CC4)cc3)n2)ccc1CNC(=O)c1cnn(C(C)(C)C)c1 [Example 81, 1-(tert-butyl)-N-(4-(2-((4-(4-((1-(3-(2,4-dioxotetrahydropyrimidin-1 (2H)-yl)phenyl)piperidin-4-yl)methyl)piperazin-1-yl)phenyl)amino)pyrimidin-4-yl)-2-methylbenzyl)-1H-pyrazole-4-carboxamide] | 65.0% | 97.0% | 99.5%
Cc1cc(-c2ccnc(Nc3ccc(C4CCN(CC5CCN(c6ccc(NC7CCC(=O)NC7=O)cc6)CC5)CC4)cc3)n2)ccc1CNC(=O)N1CC(OC(C)C)C1 (centres unmarked) [Example 56, N-(4-(2-((4-(1-((1-(4-((2,6-dioxopiperidin-3-yl)amino)phenyl)piperidin-4-yl)methyl)piperidin-4-yl)phenyl)amino)pyrimidin-4-yl)-2-methylbenzyl)-3-isopropoxyazetidine-1-carboxamide] | 13.7% | 91.3% | 99.7%
Cc1cc(-c2ccnc(Nc3ccc(C4CCN(CC5CCN(c6ccc(OC7CCC(=O)NC7=O)cc6)CC5)CC4)cc3)n2)ccc1CNC(=O)c1cnn(C(C)C)c1 (centres unmarked) [Example 49, N-(4-(2-((4-(1-((1-(4-((2,6-dioxopiperidin-3-yl)oxy)phenyl)piperidin-4-yl)methyl)piperidin-4-yl)phenyl)amino)pyrimidin-4-yl)-2-methylbenzyl)-1-isopropyl-1H-pyrazole-4-carboxamide] | 23.0% | 87.0% | 90.5%
Cc1cc(-c2ccnc(Nc3ccc(N4CCN(CC5CCN(c6cccc(NC7CCC(=O)NC7=O)c6)CC5)CC4)cc3)n2)ccc1CNC(=O)N1CC(OC(C)C)C1 (centres unmarked) [Example 54, N-(4-(2-((4-(4-((1-(3-((2,6-dioxopiperidin-3-yl)amino)phenyl)piperidin-4-yl)methyl)piperazin-1-yl)phenyl)amino)pyrimidin-4-yl)-2-methylbenzyl)-3-isopropoxyazetidine-1-carboxamide] | 38.7% | 95.0% | 99.7%
Cc1cc(-c2ccnc(Nc3ccc(N4CCC(CN5CCC(c6ccc(NC7CCC(=O)NC7=O)cc6)CC5)CC4)cc3)n2)cnc1CNC(=O)c1cn(C(C)(C)C)nn1 (centres unmarked) [Example 137, 1-(tert-butyl)-N-((5-(2-((4-(4-((4-(4-((2,6-dioxopiperidin-3-yl)amino)phenyl)piperidin-1-yl)methyl)piperidin-1-yl)phenyl)amino)pyrimidin-4-yl)-3-methylpyridin-2-yl)methyl)-1H-1,2,3-triazole-4-carboxamide] | 25.0% | 81.5% | 97.0%
Cc1cc(-c2ccnc(Nc3ccc(N4CCN(CC5CCN(c6ccc7c(c6)C(=O)N(C6CCC(=O)NC6=O)C7=O)CC5)CC4)cc3)n2)ccc1CNC(=O)c1cnn(C(C)C)c1 (centres unmarked) [Example 33, N-(4-(2-((4-(4-((1-(2-(2,6-dioxopiperidin-3-yl)-1,3-dioxoisoindolin-5-yl)piperidin-4-yl)methyl)piperazin-1-yl)phenyl)amino)pyrimidin-4-yl)-2-methylbenzyl)-1-isopropyl-1H-pyrazole-4-carboxamide] | 49.5% | 93.5% | 99.5%
Cc1cc(-c2ccnc(Nc3ccc(N4CCC(CN5CCC(c6ccc(NC7CCC(=O)NC7=O)cn6)CC5)CC4)cc3)n2)ccc1CNC(=O)c1cnn(C(C)(C)C)c1 (centres unmarked) [Example 130, 1-(tert-butyl)-N-(4-(2-((4-(4-((4-(5-((2,6-dioxopiperidin-3-yl)amino)pyridin-2-yl)piperidin-1-yl)methyl)piperidin-1-yl)phenyl)amino)pyrimidin-4-yl)-2-methylbenzyl)-1H-pyrazole-4-carboxamide] | 56.5% | 95.0% | 99.5%
Cc1cc(-c2ccnc(Nc3ccc(N4CCC(CN5CCC(c6ccc(NC7CCC(=O)NC7=O)cn6)CC5)CC4)cc3)n2)ccc1CNC(=O)c1cnn(C(C)C)c1 (centres unmarked) [Example 128, N-(4-(2-((4-(4-((4-(5-((2,6-dioxopiperidin-3-yl)amino)pyridin-2-yl)piperidin-1-yl)methyl)piperidin-1-yl)phenyl)amino)pyrimidin-4-yl)-2-methylbenzyl)-1-isopropyl-1H-pyrazole-4-carboxamide] | 51.5% | 94.5% | 99.0%
Cc1cc(-c2ccnc(Nc3ccc(CN4CCC(CN5CCC(c6ccc(N7CCC(=O)NC7=O)cc6)CC5)CC4)cc3)n2)ccc1CNC(=O)c1cn(C(C)(C)C)nn1 [Example 141, 1-(tert-butyl)-N-(4-(2-((4-((4-((4-(4-(2,4-dioxotetrahydropyrimidin-1 (2H)-yl)phenyl)piperidin-1-yl)methyl)piperidin-1-yl)methyl)phenyl)amino)pyrimidin-4-yl)-2-methylbenzyl)-1H-1,2,3-triazole-4-carboxamide] | 15.0% | 70.5% | 96.5%
Cc1c(NC(=O)c2cnn(C(C)(C)C)c2)cc(F)cc1-c1ccnc(Nc2ccc(N3CCN(CC4CCN(c5ccc6c(c5)C(=O)N(C5CCC(=O)NC5=O)C6=O)CC4)CC3)cc2)n1 (centres unmarked) [Example 24, 1-(tert-butyl)-N-(3-(2-((4-(4-((1-(2-(2,6-dioxopiperidin-3-yl)-1,3-dioxoisoindolin-5-yl)piperidin-4-yl)methyl)piperazin-1-yl)phenyl)amino)pyrimidin-4-yl)-5-fluoro-2-methylphenyl)-1H-pyrazole-4-carboxamide] |  | 6.5% | 20%
Cc1cc(-c2ccnc(Nc3ccc(C4CN(CC5CCN(c6ccc7c(c6)C(=O)N(C6CCC(=O)NC6=O)C7=O)CC5)C4)cc3)n2)ccc1CNC(=O)N1CC(OC(C)C)C1 (centres unmarked) [Example 41, N-(4-(2-((4-(1-((1-(2-(2,6-dioxopiperidin-3-yl)-1,3-dioxoisoindolin-5-yl)piperidin-4-yl)methyl)azetidin-3-yl)phenyl)amino)pyrimidin-4-yl)-2-methylbenzyl)-3-isopropoxyazetidine-1-carboxamide] | 81.5% | 100.0% | 100.0%
Cc1cc(-c2ccnc(Nc3ccc(N4CCN(CC5CCN(c6ccc(OC7CCC(=O)NC7=O)cn6)CC5)CC4)cc3)n2)ccc1CNC(=O)N1CC(OC(C)C)C1 (centres unmarked) [Example 50, N-(4-(2-((4-(4-((1-(5-((2,6-dioxopiperidin-3-yl)oxy)pyridin-2-yl)piperidin-4-yl)methyl)piperazin-1-yl)phenyl)amino)pyrimidin-4-yl)-2-methylbenzyl)-3-isopropoxyazetidine-1-carboxamide] | 19.7% | 82.0% | 99.3%
Cc1cc(-c2ccnc(Nc3ccc(CN4CCN(CC5CCN(c6cccc(N7CCC(=O)NC7=O)c6)CC5)CC4)cc3)n2)ccc1CNC(=O)N1CC(OC(C)C)C1 [Example 67, N-(4-(2-((4-((4-((1-(3-(2,4-dioxotetrahydropyrimidin-1 (2H)-yl)phenyl)piperidin-4-yl)methyl)piperazin-1-yl)methyl)phenyl)amino)pyrimidin-4-yl)-2-methylbenzyl)-3-isopropoxyazetidine-1-carboxamide] | 13.5% | 77.0% | 98.0%
Cc1cc(-c2ccnc(Nc3ccc(C4CCN(CC5CN(C(=O)c6cccc(NC7CCC(=O)NC7=O)c6)C5)CC4)cc3)n2)ccc1CNC(=O)N1CC(OC(C)C)C1 (centres unmarked) [Example 100, N-(4-(2-((4-(1-((1-(3-((2,6-dioxopiperidin-3-yl)amino)benzoyl)azetidin-3-yl)methyl)piperidin-4-yl)phenyl)amino)pyrimidin-4-yl)-2-methylbenzyl)-3-isopropoxyazetidine-1-carboxamide] | 40.5% | 91.0% | 98.0%
